In US6136323A, “Bacterial plasmin receptors as fibrinolytic agents” (University of Florida Research Foundation, Inc., priority 1994, dated 2000):

Experiments:
[1] = molecular target: binding of plasmin to the group A streptococcus 64/14; assay: Inhibition of plasmin binding to bacteria by amino acids; details: pH 7.0, 37 C, 15 min, strain 64/14; read-out: concentration giving fifty percent inhibition of binding of plasmin to the bacteria
Experimental: Labeled plasmin (100 μl containing approximately 2×10^4 cpm) was added to 200 μl VBS-gel containing varying concentrations of epsilon-aminocaproic acid (EACA), lysine, or arginine, and incubated at 37 C for 15 min. The pH of each solution was 7.0. One hundred μl of VBS-gel containing 10^7 bacteria (strain 64/14) were then added and the mixture was incubated at 37 C for 15 min. The bacterial suspensions were centrifuged at 1000 g for 7 min and washed twice with 2 ml of VBS-gel containing the same concentration of amino acid present during the incubation period. The percent inhibition of binding was calculated for duplicate experiments by comparison with binding in VBS-gel alone.

[2] = test system: plasmin prebound to the group A streptococcus; assay: Dissociation of prebound plasmin from bacteria by amino acids; details: compared with concentration inhibiting binding by 50%
Experimental: The ability of EACA, lysine, or arginine to dissociate bound plasmin from the bacteria was examined in the following manner. Labeled plasmin was incubated with 10^7 bacteria in VBS-gel containing no amino acid at 37 C for 15 min. The bacteria were pelleted by centrifugation and washed twice with 2 ml on VBS-gel. After determining the radioactivity associated with the bacteria, the pellets were resuspended in solutions of VBS-gel containing varying concentrations of amino acid (pH 7.0) as described above. The mixtures were incubated at 37 C for 15 min and washed twice with VBS-gel containing the appropriate amino acid concentration. The radioactivity associated with the bacteria in duplicate experiments was again measured and the percentage dissociated was calculated.

[3] = test system: plasmin bound to strain 64/14; assay: Preparative elution of bound labeled plasmin from strain 64/14 with lysine; format: binding, group A streptococcus; details: 20 mM lysine in VBS-gel, room temperature, 30 min
Experimental: Plasmin which had been bound to and eluted from strain 64/14 by treatment with lysine was also examined in similar binding studies. Eluted plasmin was obtained by incubating 2 ml of stock 10% wet weight/volume bacterial suspension (strain 64/14) with approximately 20 μg of labeled plasmin at room temperature for 45 min. This suspension was centrifuged at 1000 g for 10 min and washed once with 10 ml of VBS-gel, and the radioactivity associated with the bacterial pellet was measured. The pellet was then resuspended in VBS-gel containing 20 mM lysine and incubated at room temperature for 30 min. The suspension was centrifuged and the supernatant recovered. Approximately 90% of the radioactivity originally associated with the bacterial pellet was dissociated by the lysine treatment. The dissociated plasmin in the supernatant was the subjected to gel filtration of a G-25 column to separate lysine from plasmin. Fractions containing plasmin were collected and stored at -20 C.

[4] = test system: group A streptococcus 64/14; assay: Effect of pH and ionic strength on binding of labeled plasmin(ogen) to bacteria
Experimental: To assess the effect of pH on the bacterium: plasmin (ogen) interaction, 50 μl of labeled plasminogen of plasmin (approximately 2×10^4 cpm) were added to 1.0 ml of VBS containing 0.05% Tween-20 adjusted to the appropriate pH. After 15 min at room temperature, 50 μl of VBS containing approximately 10^7 bacteria (strain 64/14) were added and the mixture was incubated at 37 C for 15 min. The bacterial suspensions were centrifuged at 1000 g for 7 min to separate bacteria from unbound labeled proteins and the pellets were washed twice with 2 ml of VBS at the appropriate pH. The radioactivity associated with the bacterial pellet in duplicate experiments was measured using a Beckman 5500 autogamma counter.
To assess the effect of ionic strength on the bacterium:plasmin (ogen) interaction, similar studies were carried out in solutions containing different concentrations of NaCl with 0.05% Tween-20. The bacterial pellets were washed in the appropriate NaCl concentration to remove unbound labeled proteins.

[5] = test system: Mr 48,000 plasminogen activator protein from strain 64/14; assay: Western blot probed with 125I-human plasmin in presence or absence of EACA; format: binding, group A streptococcus; details: addition of EACA (1.0 mM)
Experimental: (§1) Gels intended for Western blotting were equilibrated in 25 mM Tris, 0.2 M glycine pH 8.0 containing 20% v/v methanol (electroblot buffer) for 25 minutes. Protein blotting, from SDS-PAGE gels, was performed using the `Trans-Blot SD Semi-Dry` electrophoretic transfer cell (Bio Rad, Richmond, Calif.). Blots were blocked as described for the dot-blot procedure, and probed for 3-4 hours at room temperature with radiolabeled human plasmin in either the presence or absence of 1.0 mM EACA, to identify functionally active protein bands. In studies of antigenic properties of these proteins, blots were probed with rabbit anti-plasmin receptor antibody or anti-group C streptokinase antibody by incubation with […] IgG per ml of probing solution (approximately a 1:3000 dilution of antisera) for three hours and probed with ^125 I-streptococcal protein G containing 3×10^4 cpm/ml. For probing with mouse monoclonal antibodies specific for epitopes on group C streptokinase, blots were probed with a 1:100 dilution of the monoclonal antibody stock solution for three hours, followed by probing with goat antibody specific for mouse IgG at 1.0 μg/ml, followed by probing with ^125 I-streptococcal protein G containing 3×10^4 cpm/ml. Blots were then washed with 0.01 M EDTA pH 7.3, containing 1.0 M NaCl, 0.25% gelatin, 0.15% Tween 20. […]

[6] = test system: Mr ≈41,000 dalton plasmin binding protein of strain 64/14; assay: as above; parameters: species or system group A streptococcus; details: 1.0 mM EACA
Experimental: as §1

group C streptokinase = assay: as above; format: binding, group C streptococci; details: addition of EACA (1.0 mM)
Experimental: as §1

plasminogen = plasminogen (Homo sapiens, UniProt P00747); assay: Plasminogen activator activity of separated proteins; format: biochemical
human plasmin = molecular target: T1, human plasmin (Homo sapiens, UniProt P00747); assay: Western blot probed with 125I-labeled human plasmin (plasmin binding activity); details: SDS-PAGE
T1 construct: from tissue
Experimental: PAGE and protein blotting. SDS-polyacrylamide gel electrophoresis (PAGE) was carried out with a 10% (wt/vol) polyacrylamide separating gel and a 4% (wt/vol) polyacrylamide stacking gel according to the method of Laemmli (Laemmli, U.K. [1970] Nature 227:680-685). Gels for Western blotting (immunoblotting) were equilibrated, and separated proteins were transferred by methods described previously (Broder et al. [1991], supra). For studies of plasmin binding, nitrocellulose membranes were blocked for 1 hour at room temperature in NET-gel buffer. The blots were then incubated for 2 hours at room temperature with ^125 I-human plasmin to identify plasmin-binding protein bands (Broder et al., supra). The blots were washed in NET-gel and subjected to autoradiography at -70 C.
Gels intended for Western blotting were equilibrated in 25 mM Tris, 0.2 M glycine pH 8.0 containing 20% v/v methanol (electroblot buffer) for 25 minutes. Protein blotting, from SDS-PAGE gels, was performed using the `Trans-Blot SD Semi-Dry` electrophoretic transfer cell (Bio Rad, Richmond, Calif.). Blots were blocked as described for the dot-blot procedure, and probed for 3-4 hours at room temperature with radiolabeled human plasmin in either the presence or absence of 1.0 mM EACA, to identify functionally active protein bands. […]

[7] = test system: group A streptococci strain 64/14; assay: Effect of Ca2+ and Mg2+ on binding of radiolabeled plasmin to bacteria; parameters: species or system group A streptococcus; details: VBS-gel with 0.00015 M Ca2+ and 0.001 M Mg2+ vs metal free VBS-gel with 0.15 M EDTA
Experimental: Bindings of radiolabeled plasmin to group A streptococci strain 64/14 was studied in the following buffers: (1) VBS-gel containing 0.00015 M Ca^2+ and 0.001 M Mg^2+, or (2) metal free VBS-gel containing 0.15 M ethylenediaminetetraacetic acid (EDTA). In each case 400 μl of buffer was added to 100 μl of VBS-gel containing approximately 10^7 bacteria and 100 μl of VBS-gel containing 3×10^4 cpm of radiolabeled plasmin. After incubation at 37 C for 15 minutes, the mixtures were centrifuged at 1000 g for 7 min to separate bacteria from unbound radiolabel, the pellets were washed twice with 2 ml of the appropriate buffer, and radioactivity associated with the bacterial pellet in duplicate experiments was measured.

plasminogen, sequence (P00747 20-810 limits assumed): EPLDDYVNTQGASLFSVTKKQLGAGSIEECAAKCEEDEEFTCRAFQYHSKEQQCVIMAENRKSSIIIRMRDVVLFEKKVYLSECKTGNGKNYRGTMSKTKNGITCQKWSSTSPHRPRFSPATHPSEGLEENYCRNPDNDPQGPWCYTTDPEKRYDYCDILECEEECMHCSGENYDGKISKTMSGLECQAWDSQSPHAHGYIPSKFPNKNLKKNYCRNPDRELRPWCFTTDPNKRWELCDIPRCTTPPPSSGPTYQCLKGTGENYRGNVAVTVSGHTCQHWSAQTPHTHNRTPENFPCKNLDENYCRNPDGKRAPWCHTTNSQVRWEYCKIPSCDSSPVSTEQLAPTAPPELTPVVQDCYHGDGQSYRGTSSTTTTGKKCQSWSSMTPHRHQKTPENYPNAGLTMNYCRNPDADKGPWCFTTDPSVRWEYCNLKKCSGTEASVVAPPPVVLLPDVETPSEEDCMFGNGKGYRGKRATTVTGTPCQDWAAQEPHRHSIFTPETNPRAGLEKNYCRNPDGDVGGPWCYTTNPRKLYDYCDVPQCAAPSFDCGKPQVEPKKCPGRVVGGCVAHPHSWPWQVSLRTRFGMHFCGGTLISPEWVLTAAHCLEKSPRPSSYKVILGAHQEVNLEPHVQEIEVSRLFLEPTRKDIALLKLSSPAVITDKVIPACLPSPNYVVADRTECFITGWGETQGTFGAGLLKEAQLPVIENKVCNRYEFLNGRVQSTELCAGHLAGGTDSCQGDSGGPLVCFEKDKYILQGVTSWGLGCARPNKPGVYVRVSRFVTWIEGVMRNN

Molecule: NCCCC[C@H](N)C(=O)O [lysine]
- IC50 [1]: 2 mM
- concentration of amino acid required to elute 50% of the bound plasmin [2]: approximately equivalent
- radioactivity originally associated with the bacterial pellet dissociated [3]: Approximately 90%

Molecule: N=C(N)NCCC[C@H](N)C(=O)O [arginine]
- IC50 [1]: 25 mM
- concentration of amino acid required to elute 50% of the bound plasmin [2]: approximately equivalent

Molecule: plasminogen
- fraction bound to bacteria ([4]; 0.1 to 0.4 M NaCl): less than 10%
- direct binding of offered counts to the bacteria ([4]; entire pH range tested (pH 5-9)): less than 10%
- binding to the bacteria at low ionic strength ([4]; ionic strength below 0.075 M NaCl): significant binding

Molecule: NCCCCCC(=O)O [EACA, epsilon-aminocaproic acid]
- IC50 [1]: 0.15 mM
- effect on binding of plasmin to the Mr 48,000 plasminogen activator protein from strain 64/14 [5]: no effect
- concentration of amino acid required to elute 50% of the bound plasmin [2]: approximately equivalent
- effect on binding of 125I-labeled human plasmin to the Mr ≈41,000 dalton protein in concentrated culture supernatant of strain 64/14 [6]: inhibited
- effect on plasmin binding activity of Mr ≈41,000 dalton band in the mutanolysin extract of strain 64/14 [6]: reduced significantly
- effect on binding of plasmin to the reference group C streptokinase molecule (group C streptokinase): no effect

B1: plasmin receptor: Mr ≈41,000 dalton plasmin binding protein extracted with mutanolysin from group A streptococcal strain 64/14 (protein)
chain: MVVKVGINGFGRIGRLAFRRIQNIEGVEVTRINDLTDPNMLAHLLKYDTTQGRFDGTVEVKEGGFEVNGNFIKVSAERDPENIDWATDGVEIVLEATGFFAKKEAAEKHLHANGAKKVVITAPGGNDVKTVVFNTNHDILDGTETVISGASCTTNCLAPMAKALHDAFGIQKGLMTTIHAYTGDQMILDGPHRGGDLRRARAGAANIVPNSTGAAKAIGLVIPELNGKLDGAAQRVPVPTGSVTELVVTLDKNVSVDEINSAMKAASNDSFGYTEDPIVSSDIVGVSYGSLFDATQTKVMEVDGSQLVKVVSWYDNEMSYTAQLVRTLEYFAKIAK
- plasminogen activating potential (plasminogen; affinity purified protein): lacked any plasminogen activating potential
- plasminogen activator activity (plasminogen; extracted (mutanolysin) preparation from strain 64/14): no plasminogen activator activity
- binding of 125I-labeled human plasmin on blot (human plasmin): capable of binding to human plasmin
- binding of 125I-labeled human plasmin on blot (human plasmin; listed as Mr ≈41,000 dalton protein): retained fractional plasmin binding activity

B2: plasmin: Human plasmin generated from radiolabeled plasminogen by incubation with urokinase (protein, UniProt P00747 20-580; P00747 581-810, looked up)
Plasmin heavy chain A: EPLDDYVNTQGASLFSVTKKQLGAGSIEECAAKCEEDEEFTCRAFQYHSKEQQCVIMAENRKSSIIIRMRDVVLFEKKVYLSECKTGNGKNYRGTMSKTKNGITCQKWSSTSPHRPRFSPATHPSEGLEENYCRNPDNDPQGPWCYTTDPEKRYDYCDILECEEECMHCSGENYDGKISKTMSGLECQAWDSQSPHAHGYIPSKFPNKNLKKNYCRNPDRELRPWCFTTDPNKRWELCDIPRCTTPPPSSGPTYQCLKGTGENYRGNVAVTVSGHTCQHWSAQTPHTHNRTPENFPCKNLDENYCRNPDGKRAPWCHTTNSQVRWEYCKIPSCDSSPVSTEQLAPTAPPELTPVVQDCYHGDGQSYRGTSSTTTTGKKCQSWSSMTPHRHQKTPENYPNAGLTMNYCRNPDADKGPWCFTTDPSVRWEYCNLKKCSGTEASVVAPPPVVLLPDVETPSEEDCMFGNGKGYRGKRATTVTGTPCQDWAAQEPHRHSIFTPETNPRAGLEKNYCRNPDGDVGGPWCYTTNPRKLYDYCDVPQCAAPSFDCGKPQVEPKKCPGR
Plasmin light chain B: VVGGCVAHPHSWPWQVSLRTRFGMHFCGGTLISPEWVLTAAHCLEKSPRPSSYKVILGAHQEVNLEPHVQEIEVSRLFLEPTRKDIALLKLSSPAVITDKVIPACLPSPNYVVADRTECFITGWGETQGTFGAGLLKEAQLPVIENKVCNRYEFLNGRVQSTELCAGHLAGGTDSCQGDSGGPLVCFEKDKYILQGVTSWGLGCARPNKPGVYVRVSRFVTWIEGVMRNN
modifications: Plasmin radiolabeled
notes: Human plasmin generated from radiolabeled plasminogen by incubation with urokinase
- counts offered being bound by the group A streptococcus 64/14 ([4]; maximal binding, between pH 5 and 8, about 10^7 bacteria, 37 C, 15 min): approximately 60%
- amount bound by the bacteria, effect of divalent cations [7]: the same in the presence or absence of divalent cations
